Data reported in BindingDB's records for doi:10.7270/Q2PN942B (Vanderbilt Screening Center for GPCRs, Ion Channels and …, 2009).

Biological target: T1, Solute carrier family 12 member 5 (Homo sapiens, UniProt Q9H2X9)
T1 sequence (Q9H2X9 whole entry): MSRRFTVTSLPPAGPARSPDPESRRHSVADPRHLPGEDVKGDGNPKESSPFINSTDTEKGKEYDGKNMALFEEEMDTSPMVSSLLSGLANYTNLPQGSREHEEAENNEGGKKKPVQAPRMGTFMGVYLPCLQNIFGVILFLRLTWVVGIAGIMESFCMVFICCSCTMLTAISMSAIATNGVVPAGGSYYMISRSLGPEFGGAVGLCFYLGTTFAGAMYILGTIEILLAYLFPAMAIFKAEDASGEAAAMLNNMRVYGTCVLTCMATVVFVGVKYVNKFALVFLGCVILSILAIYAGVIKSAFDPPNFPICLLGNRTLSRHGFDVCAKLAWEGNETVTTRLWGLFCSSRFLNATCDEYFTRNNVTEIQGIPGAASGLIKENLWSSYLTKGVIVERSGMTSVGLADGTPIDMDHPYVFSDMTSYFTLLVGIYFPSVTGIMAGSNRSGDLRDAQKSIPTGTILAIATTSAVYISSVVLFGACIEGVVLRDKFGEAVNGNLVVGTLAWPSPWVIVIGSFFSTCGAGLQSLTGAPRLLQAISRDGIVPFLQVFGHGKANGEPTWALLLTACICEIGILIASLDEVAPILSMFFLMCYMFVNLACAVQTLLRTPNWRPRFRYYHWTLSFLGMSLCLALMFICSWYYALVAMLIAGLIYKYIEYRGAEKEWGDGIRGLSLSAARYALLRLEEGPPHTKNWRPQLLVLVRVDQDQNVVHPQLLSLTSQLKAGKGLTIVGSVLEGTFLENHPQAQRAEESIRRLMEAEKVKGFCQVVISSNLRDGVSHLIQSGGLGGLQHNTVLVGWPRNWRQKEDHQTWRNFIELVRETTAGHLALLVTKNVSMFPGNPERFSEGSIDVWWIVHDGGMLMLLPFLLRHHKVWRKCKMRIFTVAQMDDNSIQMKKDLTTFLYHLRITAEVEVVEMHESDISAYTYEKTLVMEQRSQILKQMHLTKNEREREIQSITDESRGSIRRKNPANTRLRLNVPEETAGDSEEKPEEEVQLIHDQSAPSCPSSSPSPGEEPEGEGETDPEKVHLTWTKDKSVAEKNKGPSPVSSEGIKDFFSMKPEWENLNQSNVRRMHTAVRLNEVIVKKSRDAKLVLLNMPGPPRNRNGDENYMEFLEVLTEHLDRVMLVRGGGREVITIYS
Experiment: KCC2 cotransport modulators, dose response, cell-based, assay 2 (AID 1723)

[1] = inactive by the depositor's call

| SMILES | EC50 | EC50 [1] |
| --- | --- | --- |
| Cc1[nH]n2c(=O)cc(C(C)C)nc2c1-c1ccccc1 | 12.9 µM | – |
| O=[N+]([O-])c1ccc(-c2cn(-c3ccccc3F)c(=S)[nH]2)cc1 | 0.548 µM | – |
| S=c1nc(-c2ccc3c(c2)CCO3)cc[nH]1 | 8.12 µM | – |
| S=C(NCCc1ccccc1)NN=Cc1cccc(Cl)c1Cl [1-[(2,3-dichlorobenzylidene)amino]-3-phenethyl-thiourea] | 11.2 µM | – |
| Fc1cccc(F)c1C=NNC(=S)Nc1cccnc1 [1-[(2,6-difluorobenzylidene)amino]-3-(3-pyridyl)thiourea] | 14 µM | – |
| NC(=S)NN=C1C(=O)N(Cc2ccc(F)cc2)c2ccccc21 [1-[(Z)-[1-[(4-fluorophenyl)methyl]-2-oxidanylidene-indol-3-ylidene]amino]thiourea] | 2.29 µM | – |
| Cc1ccc(Cn2c(SCC(=O)Nc3cc(C)on3)nc3ccccc3c2=O)cc1 [2-[[4-keto-3-(4-methylbenzyl)quinazolin-2-yl]thio]-N-(5-methylisoxazol-3-yl)acetamide] | – | 138 µM |
| N=C1SCC(=O)N1c1ncc(Cc2cccc(Cl)c2)s1 [2-azanylidene-3-[5-[(3-chlorophenyl)methyl]-1,3-thiazol-2-yl]-1,3-thiazolidin-4-one] | 2.57 µM | – |
| O=C(NC(=S)Nc1nc(-c2cccc([N+](=O)[O-])c2)cs1)c1ccccc1Cl [2-chloranyl-N-[[4-(3-nitrophenyl)-1,3-thiazol-2-yl]carbamothioyl]benzamide] | 244 µM | – |
| CCOc1ccc2nc(Sc3cc(O)n(-c4cccc(OC)c4)c3O)sc2c1 [3-(6-Ethoxy-benzothiazol-2-ylsulfanyl)-1-(3-methoxy-phenyl)-pyrrolidine-2,5-dione] | 14.2 µM | – |
| COC(=O)c1sccc1NC(=S)OC [3-(methoxycarbothioylamino)thiophene-2-carboxylic acid methyl ester] | 1.74 µM | – |
| COC(=O)[C@@H](NC(=O)O[C@@H]1C(=O)c2ccc(OC)cc2O[C@H]1c1cccc(C(F)(F)F)c1)C(C)C [(2S)-2-[[(2S,3S)-4-keto-7-methoxy-2-[3-(trifluoromethyl)phenyl]chroman-3-yl]oxycarbonylamino]-3-methyl-butyric acid methyl ester] | 0.996 µM | – |
| CCOc1[nH]n(-c2ccccc2)c(=O)c1C=Nc1ccc(F)cc1F [(4E)-4-[[[2,4-bis(fluoranyl)phenyl]amino]methylidene]-5-ethoxy-2-phenyl-pyrazol-3-one] | 5.86 µM | – |
| Oc1ccccc1CN=Nc1nc2ccccc2o1 [(6E)-6-[(1,3-benzoxazol-2-ylhydrazo)methylidene]-1-cyclohexa-2,4-dienone] | 45.3 µM | – |
| Cc1noc(/C=C/N(C)C)c1S(=O)(=O)N(C)CC(=O)NC1CCCCC1 [MLS000047204] | – | 0.61 µM |
| Cc1nn(-c2nc3ccccc3[nH]2)c(N)c1-c1ccccc1 [MLS000063763] | 1.86 µM | – |
| O=[N+]([O-])c1ccccc1C=C[CH+][N-]n1c(-c2ccc(Cl)cc2)n[nH]c1=S [MLS000555506] | 53.1 µM | – |
| COc1cc(NC(=S)NC(=O)c2ccco2)ccc1NC(=O)C(C)C [MLS000672338] | 14.1 µM | – |
| CC(=O)c1cccc(NC(=S)NC(=O)c2ccc(C)cc2)c1 [MLS000687464] | 1.86 µM | – |
| CNc1ccc2oc(C[C@H]3O[C@@]4(CC[C@H]3C)O[C@H]([C@H](C)C(=O)c3ccc[nH]3)[C@H](C)C[C@H]4C)nc2c1C(=O)O [MLS001056783] | 15.4 µM | – |
| O=c1c2ccccc2[nH]c(=S)n1CCN1CCC(=C(c2ccc(F)cc2)c2ccc(F)cc2)CC1 [SMR000058550] | 25.5 µM | – |
